Measurements as given in patent US20260327317A1, “PROTEASE-CLEAVABLE MOIETIES AND METHODS OF USE THEREOF” (CytomX Therapeutics, Inc., priority 2022, published 2026).
Entries after “also recorded” stand apart in the source; their conditions may differ.

Legend:
[1] = In vivo stability of activatable antibodies in mice (cleaved activatable antibody in plasma); settings: 10 mg/kg intraperitoneal; for In Vivo % Activation (nu/nu, day 7): day 7, plasma; for in vivo stability vs control, in words: nu/nu mice, day 7, compared to control CM 2001
plasmin = test: In vitro cleavability of activatable antibodies by plasmin (capillary electrophoresis); format: biochemical, human; parameters: key to Cleavability (%) Plasmin (4 h): “—” indicates below limit of quantification; settings: role: substrate; for Cleavability (%) Plasmin (4 h): 500 nM activatable antibody, 10 nM plasmin, 37° C; for extent of cleavage by plasmin vs control CM 2001, in words: 4 h, compared to control CM 2001
MT-SP1 [2] = test: In vitro cleavability of activatable antibodies by MT-SP1 (capillary electrophoresis); format: biochemical, human; settings: role: substrate; for Cleavability (%) MT-SP1 (1.5h) / Cleavability (%) MT-SP1 (4 h): 500 nM activatable antibody, 37° C, pH 7.4; for Cleavability (%) MT-SP1 (1.5h): 10 nM MT-SP1, 1.5 h; for Cleavability (%) MT-SP1 (4 h): 10 nM MT-SP1, 4 h; for extent of cleavage by MT-SP1 (matriptase) vs control CM 2001, in words: compared to control CM 2001
TMPRSS11 = test: In vitro cleavability of activatable antibodies by TMPRSS11 (capillary electrophoresis); format: biochemical, human; settings: role: substrate; for Cleavability (%) TMPRSS11 (4 h): 500 nM activatable antibody, 10 nM TMPRSS11D, 37° C, pH 7.4; for extent of cleavage by TMPRSS11 vs control CM 2001, in words: 4 h, compared to control CM 2001
MT-SP1 [3] = test: Cleavability kinetics (kcat/KM) of CMs in activatable antibodies with MT-SP1; format: biochemical, human; settings: role: substrate; compared to control CMs 2001 and 0001
head and neck tumor B = test: Quantitative zymography (QZ) assay, patient-derived tumor sample; parameters: species or system human (patient-derived); settings: 20 μg/mL, 37° C, 48 hours
Procedure: (§1) Protease activities in patient-derived tumor samples were evaluated using the quantitative zymography (QZ) assay. […] Tumor tissue samples from two head and neck cancer patients and one triple negative breast cancer (TNBC) patient were analyzed utilizing activatable antibodies of the present disclosure with the CM 6006 (SEQ ID NO: 7).
(§2) The protease activity in the tumor sections of 12 μm thickness was assessed. […] An equal volume of AF647-labeled c225 activatable antibodies prepared at 40 μg/mL in QZ buffer were then added directly onto the tissue containing the buffer to form a mixture and incubated at a final concentration of 20 μg/mL in a humidified chamber at 37° C. for 48 hours.
(§3) Following 48 hours of incubation, supernatants were collected from each incubated mixture and transferred into a well of a 96-well PCR plate for assay by capillary electrophoresis. Each supernatant sample was mixed with Pico Sample Buffer (Perkin Elmer) containing 2-beta-mercaptoethanol at four parts sample and one part of Pico Sample Buffer and then heated at 95° C. for 10 minutes. The composition of each supernatant sample was then assessed using the LabChip GXII Touch (Perkin Elmer) with the HT Pico Protein Express 100 protocol (Perkin Elmer). Protein Express Assay LabChips (Perkin Elmer #760499) were set up using the protocol of the Protein Pico Assay Reagent Kit (Perkin Elmer #760498).

head and neck tumor A = test: as above; parameters: species or system human (patient-derived); settings: 20 μg/mL, 37° C, 48 hours
Procedure: as §1, §2, §3

TNBC tumor = test: as above; parameters: species or system human (patient-derived); settings: 20 μg/mL, 37° C, 48 hours
Procedure: as §1, §2, §3

[4] = system: human bone marrow aspirates; test: In situ stability in human bone marrow aspirates; settings: 20 μg/mL, 37° C, 21 or 24 hours, N=2 donors, normalized to CM 2001
Procedure: The study provided herein evaluates the in situ stability of activatable antibodies of the present disclosure with the CM 6006 (SEQ ID NO: 7) by human bone marrow aspirates. Fresh human bone marrow aspirates from healthy donors were purchased from Stemcell Technology Inc. (Catalog No. 70502) and AllCells Inc. and were processed to lyse red blood cells and washed 5 times with buffer or serum-free media. […] An equal volume of AF647-labeled c225 activatable antibodies prepared at 40 μg/mL in serum-free RPMI media were then added to form a mixture and incubated at a final concentration of 20 μg/mL at 37° C. for 21 or 24 hours. Cells were pelleted through centrifugation for 5 min at 300×g. Supernatants were collected from each incubated mixture and transferred into a well of a 96-well PCR plate for assay by capillary electrophoresis. Each supernatant sample was mixed with Pico Sample Buffer (Perkin Elmer) containing 2-beta-mercaptoethanol at four parts sample and one part of Pico Sample Buffer and then heated at 95° C. for 10 minutes. Substrate cleavage was measured by capillary electrophoresis using a LabChip® GXII Touch™ system (Perkin Elmer) with the HT Pico Protein Express 100 protocol (Perkin Elmer). Protein Express Assay LabChips (Perkin Elmer #760499) were set up using the protocol of the Protein Pico Assay Reagent Kit (Perkin Elmer #760498).

[5] = system: H292 (human lung cancer cell line) xenograft tumors; test: In vivo efficacy in mouse H292 xenograft model; parameters: species or system human tumor cells in female nu/nu mice; settings: 9 mg/kg intraperitoneal on day 1; nu/nu mice
Procedure: The study provided herein evaluates the in vivo efficacy of activatable antibodies of the present disclosure with CM 6006 (SEQ ID NO: 7) using a mouse H292 (human lung cancer cell line) xenograft model.
(§4) In this study, H292 (human lung cancer-derived cell line) subcutaneous xenograft tumors in female nu/nu mice of 6-8 weeks of age were grown to an average volume of 117-215 mm^3. […] The mice were then randomized into groups of 8 mice each and each group was dosed intraperitoneally on day 1 with 9 mg/kg of the indicated test article.

[6] = system: H292 (human lung cancer cell line) xenograft tumors; test: Intra-tumoral activation assay in H292 xenograft tumors; format: in vivo, human tumor cells in female nu/nu mice; settings: tumors collected 7 days after dosing, 9 mg/kg intraperitoneal
Procedure: as §4
Tumors were collected from the mice 7 days after dosing. The tumor tissue was lysed with immunoprecipitation buffer (Pierce) containing HALT protease inhibitor cocktail (Thermo Fisher) and EDTA and lysed using the Barocycler (Pressure Bioscience).

Substance | In Vivo % Activation (nu/nu, day 7) [1] | Cleavability (%) Plasmin (4 h) (plasmin; below limit of quantification) | Cleavability (%) MT-SP1 (1.5h) (MT-SP1 [2]) | Cleavability (%) MT-SP1 (4 h) (MT-SP1 [2]) | Cleavability (%) TMPRSS11 (4 h) (TMPRSS11) | in vivo stability vs control, in words [1] | cleavability from kcat/KM results vs control CMs, in words (MT-SP1 [3]) | Cleavability (%) Plasmin (4 h) (plasmin; pH 7.4) | extent of cleavage by plasmin vs control CM 2001, in words (plasmin) | extent of cleavage by MT-SP1 (matriptase) vs control CM 2001, in words (MT-SP1 [2]) | extent of cleavage by TMPRSS11 vs control CM 2001, in words (TMPRSS11) | light chain (LC) activation, in words (head and neck tumor B) | light chain (LC) activation, in words (head and neck tumor A) | light chain (LC) activation, in words (TNBC tumor) | resistance to cleavage in situ in bone marrow, in words [4] | cleavability percentage for MT-SP1 (MT-SP1 [2]; 1.5 h, lower bound stated in text) | in vivo efficacy (tumor volume), in words [5] | intra-tumoral activation, in words [6]
LSGRSDNH [compound 0001, reference compound] | 20% |  |  |  |  |  |  |  |  |  |  |  |  |  |  |  |  | 
ISSGLLSGRSDNH [compound 2001, reference compound] | 32.1% | — | 10.9% | 19.4% | 9.8% |  |  |  |  |  |  |  |  |  |  |  |  | 
HQSRS [compound 6001] | 24.2% |  | 56.9% | 100.0% | 100.0% | higher in vivo stability than the activatable antibody with the control CM 2001 | higher cleavability by at least MT-SP1 than control CMs 2001 (SEQ ID NO: 78) and 0001 (SEQ ID NO: 77) | 11.1% | to a greater extent than the control CM 2001 | substantially cleaved by MT-SP1; also recorded: to a greater extent than the control CM 2001 | to a greater extent than the control CM 2001 |  |  |  |  |  |  | 
APRSALAHGLF [compound 5007, reference compound] |  |  |  |  |  |  |  |  |  |  |  | Comparable levels of LC activation | Comparable levels of LC activation | Comparable levels of LC activation |  |  |  | 
SDHQSRS [compound 6006] | 18.4% |  | 33.1% | 74.1% | 100.0% | higher in vivo stability than the activatable antibody with the control CM 2001 |  | 15.1% | to a greater extent than the control CM 2001 | substantially cleaved by MT-SP1; also recorded: to a greater extent than the control CM 2001 | to a greater extent than the control CM 2001 | Comparable levels of LC activation | Increased LC activation is observed in the activatable antibody with CM 6006 (SEQ ID NO: 7) compared to the activatable antibody with the control CM 3001; also recorded: Comparable levels of LC activation | Increased LC activation is observed in the activatable antibody with CM 6006 (SEQ ID NO: 7) compared to the activatable antibody with the control CM 3001; also recorded: Comparable levels of LC activation | resistance to cleavage in situ in the bone marrow as compared to activatable antibodies with control CMs 2001 (SEQ ID NO: 78), 5007 (APRSALAHGLE; SEQ ID NO: 80) (WO2020118109) and 3001 | greater than 30% | in vivo efficacy that is comparable with the activatable antibody with the control CM 2001 (SEQ ID NO: 78) and similar to cetuximab | cleaved by proteases present in the tumor resulting in activation of the antibody
